Results on six molecules are retold here after US6660246B1, “Ligands and metal complexes thereof” (Bracco International, BV, priority 1994, dated 2003).

Structures can show the parent of a compound that is named as a salt.

What is called melting point is the temperature, or range, at which the solid turns liquid. `CN/N=C(\C)C(C)(C)NCCCNC(C)(C)/C(C)=N/O` (as salt: hydrochloride) [Example 2, 3,3,9,9-Tetramethyl-4,8-diazaundecane-2,10-dione 2-(2-Methylhydrazone) 10-Oxime]: the melting point lay within 175 to 177 °C.

`C/C(=N\O)C(C)(C)NCCCNC(C)(C)/C(C)=N/NC(=O)c1ccccc1` (as salt: trifluoroacetate) [Example 4, 3,3,9,9-Tetramethyl-4,8-diazaundecane-2,10-dione 2-(2-Benzoylhydrazone) 10-Oxime] showed a melting point of 95 to 96 °C.

`C/C(=N\N)C(C)(C)NCCCNC(C)(C)/C(C)=N/O` [Example 1, 3,3,9,9-Tetramethyl-4,8-diazaundecane-2,10-dione 2-Hydrazone 10-Oxime] showed a melting point of 125 to 126 °C.

Take `C/C(=N\O)C(C)(C)NCCCNC(C)(C)/C(C)=N/Nc1ccccc1` [Example 3, 3,3,9,9-Tetramethyl-4,8-diazaundecane-2,10-dione 2-(2-Phenyl-hydrazone) 10-Oxime]: the melting point was in the range of 145 to 146 °C.

In turn, `C/C(=N\N)C(C)(C)NCCCNC(C)(C)/C(C)=N/N` [Example 5, 3,3,9,9-Tetramethyl-4,8-diazaundecane-2,10-dione Bishydrazone] registered a melting point of 95 to 96 °C.

`C/C(=N\O)C(C)(C)NCCNC(C)(C)/C(C)=N/Nc1ccccc1` [Example 6, 3,3,8,8-Tetramethyl-4,8-diazadecane-2,9-dione 2-(2-Phenylhydrazone) 9-Oxime]: the melting point lay in the range of 95 to 97 °C.
